Values quoted from earlier work, collected in patent US20080089844A1 (priority 2002, published 2008).

Molecular target: F425G Shaker mutation (Drosophila melanogaster, UniProt P08510, F425G)
Settings: cited from earlier work

Chain of F425G Shaker mutation (P08510 whole entry F425G, looked up): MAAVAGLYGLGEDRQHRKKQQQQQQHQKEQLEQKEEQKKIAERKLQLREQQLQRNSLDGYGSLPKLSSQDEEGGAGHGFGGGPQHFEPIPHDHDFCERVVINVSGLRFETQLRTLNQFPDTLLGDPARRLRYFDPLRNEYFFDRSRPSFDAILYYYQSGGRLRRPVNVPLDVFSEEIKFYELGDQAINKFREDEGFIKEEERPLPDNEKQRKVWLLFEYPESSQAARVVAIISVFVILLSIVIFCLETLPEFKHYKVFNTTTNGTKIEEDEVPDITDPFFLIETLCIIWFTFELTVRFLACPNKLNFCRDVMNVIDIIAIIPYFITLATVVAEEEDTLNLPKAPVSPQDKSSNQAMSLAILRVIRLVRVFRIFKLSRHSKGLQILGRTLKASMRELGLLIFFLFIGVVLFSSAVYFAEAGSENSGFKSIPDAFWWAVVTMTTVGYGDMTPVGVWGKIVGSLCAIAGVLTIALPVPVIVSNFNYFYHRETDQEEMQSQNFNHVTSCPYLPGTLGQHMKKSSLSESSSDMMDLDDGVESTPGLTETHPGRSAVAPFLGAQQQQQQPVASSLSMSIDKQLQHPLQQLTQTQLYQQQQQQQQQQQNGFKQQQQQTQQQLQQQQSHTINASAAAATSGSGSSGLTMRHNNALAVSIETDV

For charybdotoxin [reference compound], the “effect of F425G Shaker mutation on charybdotoxin affinity” value is listed as “increases charybdotoxin affinity by three orders of magnitude”.
